Laboratory results reported in patent publication US6737383B1, “Herbicidal oxadiazolidines” (priority 1999, dated 2004).

Assays:
[1] = system: surinam grass; test: Test D surinam grass; format: in vivo, Brachiaria decumbens; conditions: Preemergence, 0 to 100 scale
Summary of the method: (§1)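 Greenhouse pots, sandy loam, single species per pot. Preemergence tests: soil-surface application ≤1 day after planting. Compound formulated in non-phytotoxic solvent with surfactant. Visual rating 14–21 DAT, scale 0–100.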

[2] = system: sandbur; test: Test D sandbur; format: in vivo, Cenchrus echinatus; conditions: Preemergence, 0 to 100 scale
Summary of the method: as §1

[3] = system: itchgrass; test: Test D itchgrass; format: in vivo, Rottboellia exaltata; conditions: Preemergence, 0 to 100 scale
Summary of the method: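 Scoring used a 0–100 visual injury scale, with 0 meaning no effect and 100 complete control, assessed 14–21 days after application alongside untreated pots. Preemergence treatments went onto sandy loam surfaces of separately potted seeds within a day of sowing.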

[4] = system: dallisgrass; test: Test D dallisgrass; format: in vivo, Paspalum dilatatum; conditions: Preemergence, 0 to 100 scale
Summary of the method: as §1

[5] = system: Alexandergrass; test: Test D Alexandergrass; format: in vivo, Brachiaria plantaginea; conditions: Preemergence, 0 to 100 scale
Summary of the method: as §1

[6] = system: bermuda-grass; test: Test D bermudagrass; format: in vivo, Cynodon dactylon; conditions: Preemergence, 0 to 100 scale
Source text: (§2) Seeds, tubers, or plant parts of Alexandergrass (Brachiaria plantaginea), bermuda-grass (Cynodon dactylon), common pursiane (Portulaca oleracea), common ragweed (Ambrosia elatior), common groundsel (Senecio vulgaris), dallisgrass (Paspalum dilatatum), goosegrass (Eleusine indica), guineagrass (Panicum maximum), itchgrass (Rottboellia exaltata), Johnson grass (Sorghum halepense), large crabgrass (Digitaria sanguinalis), pitted morningglory (Ipomoea lacunosa), purple nutsedge (Cyperus rotundus), sandbur (Cenchrus echinatus), sourgrass (Trichachne insularis), Spanishneedles (Bidens bipinnata), surinam grass (Brachiaria decumbens) and tall mallow (Malva sylvestris) were planted into greenhouse pots of flats containing greenhouse planting medium. Plant species were grown in separate pots or individual compartments. Preemergence applications were made within one day of planting the seed or plant part.
(§3) Test chemicals were formulated in a non-phytotoxic solvent mixture which included a surfactant and applied preemergence to the surface of the pot containing seeds in a sandy loam soil. Untreated control pots and treated pots were placed in the greenhouse for growth and visually evaluated for injury 14 to 21 days after herbicide application. Plant response ratings, summarized in Table C, are based on a 0 to 100 scale where 0 is no injury and 100 is complete control. A dash (−) response means no test result.

[7] = system: Johnson grass; test: Test D Johnson grass; format: in vivo, Sorghum halepense; conditions: Preemergence, 0 to 100 scale
Summary of the method: as §1

[8] = system: pitted morningglory; test: Test D pitted morningglory; format: in vivo, Ipomoea lacunosa; conditions: Preemergence, 0 to 100 scale
Source text: as §2
as §3, with “Plant response ratings, summarized in Table C, are based on a 0 to 100 scale where 0 is no injury and 100 is complete control.” left out

[9] = system: goosegrass; test: Test D goosegrass; format: in vivo, Eleusine indica; conditions: Preemergence, 0 to 100 scale
Source text: as §2, §3

[10] = system: Spanishneedles; test: Test D Spanishneedles; format: in vivo, Bidens bipinnata; conditions: Preemergence, 0 to 100 scale
Source text: as §2, §3

[11] = system: tall mallow; test: Test D tall mallow; format: in vivo, Malva sylvestris; conditions: Preemergence, 0 to 100 scale
Summary of the method: as §1

[12] = system: common pursiane; test: Test D common purslane; format: in vivo, Portulaca oleracea; conditions: Preemergence, 0 to 100 scale
Source text: as §2, §3

[13] = system: Green foxtail; test: Test D green foxtail; format: in vivo
Summary of the method: as §1

[14] = system: Green foxtail; test: Test D green foxtail; format: in vivo; conditions: Preemergence, 0 to 100 scale
Source text: as §2, §3

[15] = system: common groundsel; test: Test D common groundsel; format: in vivo, Senecio vulgaris; conditions: Preemergence, 0 to 100 scale
Source text: as §2, §3

[16] = Rate 16 g/ha, 0 no injury, 100 complete control
[17] = Rate 32 g/ha, 0 no injury, 100 complete control
[18] = Rate 64 g/ha, 0 no injury, 100 complete control
[19] = Rate 125 g/ha, 0 no injury, 100 complete control
[20] = Rate 64 g/ha, Preemergence; 0 to 100 scale, 0 no injury, 100 complete control
[21] = Rate 125 g/ha, Preemergence; 0 to 100 scale, 0 no injury, 100 complete control

Cc1ccccc1-n1c(=O)on(C(=O)N(c2ccc(F)cc2)C(C)C)c1=O [Compound 4]
Plant response rating, Surinam grass [1, 16]: 0
Plant response rating, Surinam grass [1, 17]: 0
Surinam grass plant response rating [1, 18]: 65
Surinam grass plant response rating [1, 19]: 90
Plant response rating, Surinam grass ([1]; Rate 250 g/ha): 85
Plant response rating, Surinam grass ([1]; Rate 500 g/ha): 98
Plant response rating, Sandbur [2, 16]: 0
Plant response rating, Sandbur [2, 17]: 0
Sandbur plant response rating [2, 18]: 65
Sandbur plant response rating [2, 19]: 30
Plant response rating, Sandbur ([2]; Rate 250 g/ha): 90
Plant response rating, Sandbur ([2]; Rate 500 g/ha): 100
Plant response rating, Itchgrass [3, 16]: 0
Plant response rating, Itchgrass [3, 17]: 0
Plant response rating, Itchgrass [3, 18]: 75
Plant response rating, Itchgrass [3, 19]: 0
Plant response rating, Itchgrass ([3]; Rate 250 g/ha): 80
Plant response rating, Itchgrass ([3]; Rate 500 g/ha): 80
Plant response rating, Dallisgrass [4, 16]: 75
Plant response rating, Dallisgrass [4, 17]: 85
Plant response rating, Dallisgrass [4, 18]: 90
Plant response rating, Dallisgrass [4, 19]: 98
Plant response rating, Dallisgrass ([4]; Rate 250 g/ha): 98
Plant response rating, Dallisgrass ([4]; Rate 500 g/ha): 98
Plant response rating, Alexandergrass [5, 16]: 20
Plant response rating, Alexandergrass [5, 17]: 20
Plant response rating, Alexandergrass [5, 18]: 80
Plant response rating, Alexandergrass [5, 19]: 80
Plant response rating, Alexandergrass ([5]; Rate 250 g/ha): 90
Plant response rating, Alexandergrass ([5]; Rate 500 g/ha): 100
Plant response rating, Bermudagrass [6, 16]: 0
Plant response rating, Bermudagrass [6, 17]: 0
Plant response rating, Bermudagrass [6, 18]: 0
Plant response rating, Bermudagrass [6, 19]: 30
Plant response rating, Bermudagrass ([6]; Rate 250 g/ha): 98
Plant response rating, Bermudagrass ([6]; Rate 500 g/ha): 98
Plant response rating, Johnsongrass [7, 16]: 0
Plant response rating, Johnsongrass [7, 17]: 0
Plant response rating, Johnsongrass [7, 18]: 30
Plant response rating, Johnsongrass [7, 19]: 0
Plant response rating, Johnsongrass ([7]; Rate 250 g/ha): 30
Plant response rating, Johnsongrass ([7]; Rate 500 g/ha): 30
Plant response rating, P. morninglory [8, 16]: 0
Plant response rating, P. morninglory [8, 17]: 0
Plant response rating, P. morninglory [8, 18]: 0
Plant response rating, P. morninglory [8, 19]: 0
Plant response rating, P. morninglory ([8]; Rate 250 g/ha): 0
Plant response rating, P. morninglory ([8]; Rate 500 g/ha): 0
Plant response rating, Goosegrass [9, 16]: 70
Plant response rating, Goosegrass [9, 17]: 85
Plant response rating, Goosegrass [9, 18]: 95
Plant response rating, Goosegrass [9, 19]: 98
Plant response rating, Goosegrass ([9]; Rate 250 g/ha): 98
Plant response rating, Goosegrass ([9]; Rate 500 g/ha): 100
Plant response rating, Spanishneedles [10, 16]: 0
Spanishneedles plant response rating [10, 18]: 0
Spanishneedles plant response rating [10, 19]: 40
Plant response rating, Spanishneedles ([10]; Rate 500 g/ha): 0
Plant response rating, Tall Mallow [11, 16]: 0
Plant response rating, Tall Mallow [11, 17]: 0
Tall Mallow plant response rating [11, 18]: 0
Tall Mallow plant response rating [11, 19]: 0
Plant response rating, Tall Mallow ([11]; Rate 250 g/ha): 30
Plant response rating, Tall Mallow ([11]; Rate 500 g/ha): 30
Plant response rating, C. purslane [12, 16]: 0
Plant response rating, C. purslane [12, 17]: 0
Plant response rating, C. purslane [12, 18]: 0
Plant response rating, C. purslane [12, 19]: 0
Plant response rating, C. purslane ([12]; Rate 250 g/ha): 0
Plant response rating, C. purslane ([12]; Rate 500 g/ha): 0

Cc1cccc(C)c1-n1c(=O)on(C(=O)N(c2ccccc2)C(C)C)c1=O [Compound 46]
Plant response rating, Surinam grass [1, 16]: 0
Plant response rating, Surinam grass [1, 17]: 0
Surinam grass plant response rating [1, 18]: 0
Surinam grass plant response rating [1, 19]: 0
Plant response rating, Surinam grass ([1]; Rate 250 g/ha): 10
Plant response rating, Surinam grass ([1]; Rate 500 g/ha): 30
Plant response rating, Sandbur [2, 16]: 0
Plant response rating, Sandbur [2, 17]: 0
Sandbur plant response rating [2, 18]: 0
Sandbur plant response rating [2, 19]: 0
Plant response rating, Sandbur ([2]; Rate 250 g/ha): 0
Plant response rating, Sandbur ([2]; Rate 500 g/ha): 0
Plant response rating, Itchgrass [3, 16]: 0
Plant response rating, Itchgrass [3, 17]: 0
Plant response rating, Itchgrass [3, 18]: 0
Plant response rating, Itchgrass [3, 19]: 0
Plant response rating, Itchgrass ([3]; Rate 250 g/ha): 0
Plant response rating, Itchgrass ([3]; Rate 500 g/ha): 10
Plant response rating, Dallisgrass [4, 16]: 20
Plant response rating, Dallisgrass [4, 17]: 40
Plant response rating, Dallisgrass [4, 18]: 40
Plant response rating, Dallisgrass [4, 19]: 100
Plant response rating, Dallisgrass ([4]; Rate 250 g/ha): 100
Plant response rating, Dallisgrass ([4]; Rate 500 g/ha): 100
Plant response rating, Alexandergrass [5, 16]: 0
Plant response rating, Alexandergrass [5, 17]: 0
Plant response rating, Alexandergrass [5, 18]: 40
Plant response rating, Alexandergrass [5, 19]: 65
Plant response rating, Alexandergrass ([5]; Rate 250 g/ha): 75
Plant response rating, Alexandergrass ([5]; Rate 500 g/ha): 80
Plant response rating, Bermudagrass [6, 16]: 65
Plant response rating, Bermudagrass [6, 17]: 85
Plant response rating, Bermudagrass [6, 18]: 98
Plant response rating, Bermudagrass [6, 19]: 100
Plant response rating, Bermudagrass ([6]; Rate 250 g/ha): 100
Plant response rating, Bermudagrass ([6]; Rate 500 g/ha): 100
Plant response rating, Johnsongrass [7, 16]: 0
Plant response rating, Johnsongrass [7, 17]: 0
Plant response rating, Johnsongrass [7, 18]: 0
Plant response rating, Johnsongrass [7, 19]: 40
Plant response rating, Johnsongrass ([7]; Rate 250 g/ha): 40
Plant response rating, Johnsongrass ([7]; Rate 500 g/ha): 60
Plant response rating, P. morninglory [8, 16]: 0
Plant response rating, P. morninglory [8, 17]: 0
Plant response rating, P. morninglory [8, 18]: 0
Plant response rating, P. morninglory [8, 19]: 0
Plant response rating, P. morninglory ([8]; Rate 250 g/ha): 0
Plant response rating, P. morninglory ([8]; Rate 500 g/ha): 0
Plant response rating, Green foxtail ([13]; Preemergence; Rate 16 g/ha; 0 to 100 scale, 0 no injury, 100 complete control): 0
Plant response rating, Green foxtail ([13]; Preemergence; Rate 32 g/ha; 0 to 100 scale, 0 no injury, 100 complete control): 0
Plant response rating, Green foxtail ([13]; Rate 16 g/ha; Preemergence; 0 to 100 scale, 0 no injury, 100 complete control): 0
Plant response rating, Green foxtail ([13]; Rate 32 g/ha; Preemergence; 0 to 100 scale, 0 no injury, 100 complete control): 75
Green foxtail plant response rating [13, 20]: 30
Plant response rating, Green foxtail [13, 20]: 30
Green foxtail plant response rating [13, 21]: 40
Plant response rating, Green foxtail [13, 21]: 40
Plant response rating, Green foxtail ([13]; Rate 250 g/ha; Preemergence; 0 to 100 scale): 100
Plant response rating, Green foxtail ([13]; Rate 500 g/ha, Preemergence; 0 to 100 scale): 100
Plant response rating, Goosegrass [9, 16]: 0
Plant response rating, Goosegrass [9, 17]: 20
Plant response rating, Goosegrass [9, 18]: 75
Plant response rating, Goosegrass [9, 19]: 85
Plant response rating, Goosegrass ([9]; Rate 250 g/ha): 98
Plant response rating, Goosegrass ([9]; Rate 500 g/ha): 100
Plant response rating, Spanishneedles [10, 16]: 0
Plant response rating, Spanishneedles [10, 17]: 0
Spanishneedles plant response rating [10, 18]: 0
Spanishneedles plant response rating [10, 19]: 10
Plant response rating, Spanishneedles ([10]; Rate 500 g/ha): 20
Plant response rating, Tall Mallow [11, 16]: 0
Plant response rating, Tall Mallow [11, 17]: 0
Tall Mallow plant response rating [11, 18]: 0
Tall Mallow plant response rating [11, 19]: 10
Plant response rating, Tall Mallow ([11]; Rate 250 g/ha): 10
Plant response rating, Tall Mallow ([11]; Rate 500 g/ha): 10
Plant response rating, Green foxtail ([14]; Rate 250 g/ha): 100
Plant response rating, Green foxtail ([14]; Rate 500 g/ha): 100
Plant response rating, C. purslane [12, 16]: 0
Plant response rating, C. purslane [12, 17]: 0
Plant response rating, C. purslane [12, 18]: 0
Plant response rating, C. purslane [12, 19]: 0
Plant response rating, C. purslane ([12]; Rate 250 g/ha): 0
Plant response rating, C. purslane ([12]; Rate 500 g/ha): 0
Plant response rating, Com. groundsel [15, 16]: 0
Plant response rating, Com. groundsel [15, 17]: 0
Plant response rating, Com. groundsel [15, 18]: 0
Plant response rating, Com. groundsel [15, 19]: 0
Plant response rating, Com. groundsel ([15]; Rate 250 g/ha): 0
Plant response rating, Com. groundsel ([15]; Rate 500 g/ha): 0
